Patent publication US5413915A (priority 1991, dated 1995)
Like-named read-outs stand apart in the source and are kept apart here. Marks after values point to notes of the source that are not given here.

Legend:
Salmonella typhimurium = settings: cited from earlier work
[1] = in vivo; cited from earlier work
[2] = cited from earlier work; for Em7: midpoint redox potential; for E1/2: literature (Kemula and Axt)
[3] = in vivo; cited from earlier work; remark: listed apart in the source
[4] = Direct reaction of chemicals with the indicator leuco dye; settings: without metabolic activation
rat liver microsomes [5] = type: biochemical; parameters: key: Positive: the development of coloration denoted a positive response; Negative: the absence of such coloration denoted a negative response
rat liver microsomes [6] = assay: Color development in detection elements with different leuco dyes (Table 2); type: biochemical; settings: applied dose 10 μmol (formaldehyde 1 μmol); for New Color Development, NBTZ: unexposed control also Black
Method: Solutions containing 0.5 mM of the respective dyes in 0.1 M TRIS buffer, pH=7.4 (except for nitro blue tetrazolium, 5.0 mM in 50% ethanolic TRIS, pH=7.4) were bleached with a few crystals of sodium sulfite or sodium dithionite, then plied in 0.02 mL aliquots as test spots on a clear sheet of transparency film. Spontaneous color development in air was noted (Table 2). Subsequently, a suspension of rat liver microsomes containing 1 mM NADPH and 1 mg/mL gelatin in 0.1 M TRIS-MOPS buffer (pH=7.7) was plied in 0.05 mL aliquots over the dried leuco-dye test spots. After drying, color development condition was noted, and the test spots saved for exposure tests to chemical substances (Table 2). Exposures were carried out by layering 0.01 mL of 0.1-1.0 M solutions of test chemical substances onto the test spots, and changes in color noted over time.

rat liver microsomes [7] = type: biochemical; parameters: unit not given here
[8] = system: benzo(a)pyrene-induced rat liver microsomes; assay: Vapor exposure of detection elements in continuous flow chamber (Example 10); type: biochemical
Method: Detection elements of the present invention were prepared in the following manner. 13 mg PRA dissolved in 9.8 mL 0.1M TRISMOPS buffer (pH=7.4) and 3.2 mL ethanol, was bleached with 71 mg solid sodium sulfite. 0.05 mL Aliquots of the leuco-dye solution were plied to sheets of transparency film, and were air dried for one hour. […] After drying in air, the test spots were cut and mounted in 35 mm tissue culture dishes, then stored at -20° C. until ready for use. Detection elements were visually clear, with a slight flesh tone.
Vapor exposures of detection elements to the carcinogen chloromethyl methyl ether (CH3 --O--CH2 Cl) were carried out at ambient temperature,pressure, and humidity conditions in a continuous flow chamber. Air, metered at a flow rate of 1 L/min, was passed through a flask containing 2.0 mL of a rapidly stirred solution of CH3 --O--CH2 Cl in ethanol. After a glass wool plug to remove entrained liquid mists, the loaded air stream entered a 10 mm diameter tube into which the detection elements were mounted, without pre-moistening, parallel to the air flow. Flow conditions were calculated to be laminar (estimated Reynolds number=150) under these conditions. Exposure was conducted for ten minutes, after which the detection elements were removed and analyzed colorimetrically by taping to the sample beam exit slit of a double-beam spectrophotometer, and scanning the absorption spectrum versus an unexposed detection element affixed to the reference beam. At one exemplary test condition, in which the initial solution concentration of CH3 --O--CH2 Cl was 1.2M, 0.4 mL of the starting solution was recovered at the end of the exposure period. Based on both material balance and Raoult's law calculations, a single value of approximately 5200 ppm was determined for the airborne concentration of CH3 --O--CH2 Cl during the exposure. […] NADPH oxidation, equivalent to 0.4 mM or approximately 20% of the total NADPH, occurred during the 10-minute exposure, but ceased thereafter. By contrast, leuco-dye oxidation continued to intensify for some 2-4 hours, to a final level of about 0.5 mM in the detection element.
In similar experiments to FIG. 7, but in which the airborne concentration of CH3 --O--CH2 Cl was adjusted by lowering its solution concentration, color development is proportional to delivered dose, both by direct liquid administration and vapor exposure. […] For a 10-minute exposure, approximately 0.1% of the total CH3 --O--CH2 Cl in the air stream is absorbed and reacted by detection elements mounted parallel to the air flow.

rat liver microsomes [9] = assay: Color development in detection elements with different leuco dyes (Table 2); type: biochemical
microsomal protein = assay: In vitro microsomal activation of hydrazine: leuco dye oxidation (Example 9); type: biochemical; settings: 0.5 mM hydrazine hydrate
Method: Test of leuco pararosaniline color formation and NADPH redox states, as a function of time after hydrazine addition, was conducted in vitro, and UV-visible absorbance changes monitored. All systems were aerobic (at least 0.2 mM O2). 0.03 mM Pararosaniline was reduced by addition of 0.1 mM sodium sulfite in 0.1 M 10 tris(hydroxymethyl-)aminomethane buffer (pH=7.5), and 0.3 mM NADPH with approximately 0.5 mg/mL microsomal protein (curves indicated with "+m"). At time=0, hydrazine hydrate (pH=7.5) was added to a final concentration of 0.5 mM. […] Approximately 60% of the leuco dye was oxidized (0.02 mM) during the reaction, and roughly twice that amount of […].

rat liver microsomes [10] = assay: Colorimetric reactions of constituents in bi-layer film (Example 1); type: biochemical; settings: no microsomes, no NADPH, bottom PRA-reduced (samples 5, 6)
Method: In order to establish the color development behavior of various constituents employed in the invention alone and in several combinations, including two selected test chemicals, seven separate bi-layer film spots were prepared using an otherwise similar gelatin binder medium. The bottom layer of these spots contained reduced pararosaniline (PRA) in all instances except sample 7 wherein the oxidized PRA was substituted to illustrate the coloration of that constituent. An ascorbate salt was selected as typical of a benign test chemical, while benzo(a)pyrene was selected as a representative known carcinogen. The color behavior of the various samples was observed and identified in the following Table 3 together with the compositions of the samples tested.

[11] = 10-minute vapor exposure, approximately 5200 ppm

## CN(C)c1ccc2nc3ccc(=[N+](C)C)cc-3sc2c1 [Methylene Blue (USP), Methylene Blue]
Salmonella typhimurium
  Mutagenicity: +
[1]
  Teratogen Activity: -
[2]
  Em7: +0.01 V
[3]
  Tumorigen Activity: -

## C=O [Formaldehyde]
Salmonella typhimurium
  Mutagenicity: -
  Mutagenicity, direct-acting mutagen: +
[4]
  Direct reaction with the indicator leuco dye: react directly with the indicator dye
[1]
  Teratogen Activity: +
Rat liver microsomes [5]
  Invention Response: Positive
[3]
  Carcinogenic Status: Probable
  Tumorigen Activity: +
Rat liver microsomes [6]
  New Color Development, Methyl Violet leuco dye: Violet
  New Color Development, Naphthol Blue-Black leuco dye: None
  New Color Development, Nile Blue A leuco dye: Blue
  New Color Development, Safranin O leuco dye: None
  New Color Development, NBTZ: Black
Rat liver microsomes [7]
  Detector Response, threshold dose: 0.01

## methyl violet
[2]
  E1/2: approximately -0.75 V

## CN(C)c1ccc(C(=C2C=CC(=[N+](C)C)C=C2)c2ccccc2)cc1 [malachite green]
[2]
  E1/2: -0.55 V

## Cc1cc2nc3cc(C)c(N)cc3[n+](-c3ccccc3)c2cc1N.[Cl-] [Safranin O]
[2]
  Em7: -0.28 V

## dichromate
[4]
  Direct reaction with the indicator leuco dye: react directly with the indicator dye

## CC1=CC(=O)c2ccccc2C1=O [Menadione]
Salmonella typhimurium
  Mutagenicity: +
[1]
  Teratogen Activity: +
Rat liver microsomes [5]
  Invention Response: Positive
[3]
  Carcinogenic Status: Possible
  Tumorigen Activity: +^e
Rat liver microsomes [6]
  New Color Development, Methyl Green leuco dye: None
  New Color Development, Methyl Violet leuco dye: None^a,b
  New Color Development, Naphthol Blue-Black leuco dye: None^b
  New Color Development, Nile Blue A leuco dye: None^b
  New Color Development, Safranin O leuco dye: None
  New Color Development, NBTZ: Black
Rat liver microsomes [7]
  Detector Response, threshold dose: 0.01

## Nile Blue A
[2]
  Em7: -0.12 V

## COCCl [Chloromethyl methyl ether]
Salmonella typhimurium
  Mutagenicity: +
[1]
  Teratogen Activity: +
[3]
  Tumorigen Activity: +
Rat liver microsomes [7]
  Detector Response, threshold dose: 0.1
[8]; [11]
  NADPH oxidation in detection element: 0.4 mM
  NADPH oxidation, share of the total NADPH: approximately 20%
[8]; after 10-minute exposure
  Time over which leuco-dye oxidation continued to intensify: 2 to 4 h
[8]; after 10-minute exposure, approximately 5200 ppm
  Leuco-dye oxidation, final level in the detection element: about 0.5 mM

## O=C(O)CI [ICH2 COOH, iodoacetic acid]
[4]
  Direct reaction with the indicator leuco dye: react with the leuco dye to give colored products
[4]; listed as iodoacetate
  Direct reaction with the indicator leuco dye: react directly with the indicator dye
Rat liver microsomes [6]
  New Color Development, Methyl Green leuco dye: Green
  New Color Development, Methyl Violet leuco dye: Purple
  New Color Development, Naphthol Blue-Black leuco dye: None
  New Color Development, Safranin O leuco dye: None
  New Color Development, NBTZ: Black

## OO [H2 O2]
Salmonella typhimurium
  Mutagenicity: +
[4]
  Direct reaction with the indicator leuco dye: react directly with the indicator dye
[1]
  Teratogen Activity: -
[3]
  Tumorigen Activity, assignment based on IARC reports: +
Rat liver microsomes [7]
  Detector Response, threshold dose: 1-2

## NN [Hydrazine]
Salmonella typhimurium
  Mutagenicity: +
[1]
  Teratogen Activity: +
[2]
  Em7: -0.73 V
[3]
  Tumorigen Activity: +
Cytochrome P450IA1
  Gain of sensitivity, 50%:50% BaP-induced and uninduced microsomes versus uninduced: approximately 10 fold
  Loss of sensitivity, BNF-induced versus uninduced microsomes: 20-50 fold
Rat liver microsomes [9]; exposure to hydrazine
  Color of detection elements with leuco methylene blue in combination with pararosaniline: magenta color
Rat liver microsomes [9]; exposure to hydrazine solutions, separate tests
  Color of detection elements using leuco malachite green: visually detectable green color
Rat liver microsomes [6]
  New Color Development, NBTZ: Black
Microsomal protein
  Leuco dye oxidized during the reaction: 0.02 mM
  Time to asymptote of leuco-dye oxidation and NADPH reduction: 2.0 to 2.5 h
Microsomal protein; 0.03 mM PRA, 0.3 mM NADPH, microsomes
  Leuco dye oxidized during the reaction: Approximately 60%
Rat liver microsomes [7]
  Detector Response, threshold dose: 0.1-20

## [Cd+2] [Cd(II)]
Salmonella typhimurium
  Mutagenicity: +
[1]
  Teratogen Activity: +
[3]
  Tumorigen Activity, assignment based on IARC reports: +
Cytochrome P450IA1; compared with the shift seen for hydrazine
  Dose-response shift, BNF-induced detection elements versus uninduced controls: less significantly

## O=S([O-])S(=O)[O-].[Na+].[Na+] [sodium dithionite]
[2]
  Em7: < -0.5 V

## Oc1ccccc1 [Phenol]
[1]
  Teratogen Activity: -
Rat liver microsomes [5]
  Invention Response: Positive
[3]
  Carcinogenic Status: Possible
  Tumorigen Activity: -
Cytochrome P450IA1
  Dose-response shift, BNF-induced detection elements versus uninduced controls: less significantly
Rat liver microsomes [7]
  Detector Response, threshold dose: 0.02

## CN(C)c1ccc(C(=C2C=CC(=[N+](C)C)C=C2)c2ccc([N+](C)(C)C)cc2)cc1.[Cl-].[Cl-] [Methyl Green, methyl green]
[2]
  E1/2: approximately -0.55 V

## O=C1O[C@H]([C@@H](O)CO)C(O)=C1O [free ascorbic acid, ascorbic acid]
Rat liver microsomes [10]
  COLOR REACTION: color reaction occurs

## ClC=C(Cl)Cl [Trichloroethylene]
Salmonella typhimurium
  Mutagenicity: +
[1]
  Teratogen Activity: +
[3]
  Tumorigen Activity: +
Cytochrome P450IA1
  Dose-response shift, BNF-induced detection elements versus uninduced controls: less significantly
Rat liver microsomes [7]
  Detector Response, threshold dose: 150
